Measured values: article PMC10017709, “Structural basis of selective cannabinoid CB2 receptor activation” (Nature Communications, 2023)
Values joined by “and” are separate entries in the source; they are usually repeats but may differ in a detail not shown here. Equal values may be shown once. Read-outs that look alike come from different tables or passages of the source.

Legend:
[1] = target: CB2R-I110^3.29L (Homo sapiens, UniProt P34972, I110L); assay: [3H]CP55,940 displacement assay, CB2R I110L mutant; type: binding
Sequence of CB2R-I110^3.29L (P34972 whole entry I110L): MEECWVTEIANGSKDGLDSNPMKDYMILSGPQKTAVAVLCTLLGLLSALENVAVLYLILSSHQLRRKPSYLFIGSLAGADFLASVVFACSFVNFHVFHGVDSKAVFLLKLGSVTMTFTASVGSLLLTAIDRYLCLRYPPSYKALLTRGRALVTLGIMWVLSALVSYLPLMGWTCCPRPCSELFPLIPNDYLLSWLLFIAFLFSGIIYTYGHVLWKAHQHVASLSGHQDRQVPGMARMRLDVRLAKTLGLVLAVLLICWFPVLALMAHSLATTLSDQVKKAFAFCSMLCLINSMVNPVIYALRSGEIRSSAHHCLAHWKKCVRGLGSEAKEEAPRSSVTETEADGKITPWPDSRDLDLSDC

[2] = target: CB1R-H270^ECL2L (Homo sapiens, UniProt P21554, H270L); assay: [35S]GTPγS assay, CB1R H270L mutant; type: biochemical; settings: CB1R H270L; 10 µM agonist
Sequence of CB1R-H270^ECL2L (P21554 whole entry H270L): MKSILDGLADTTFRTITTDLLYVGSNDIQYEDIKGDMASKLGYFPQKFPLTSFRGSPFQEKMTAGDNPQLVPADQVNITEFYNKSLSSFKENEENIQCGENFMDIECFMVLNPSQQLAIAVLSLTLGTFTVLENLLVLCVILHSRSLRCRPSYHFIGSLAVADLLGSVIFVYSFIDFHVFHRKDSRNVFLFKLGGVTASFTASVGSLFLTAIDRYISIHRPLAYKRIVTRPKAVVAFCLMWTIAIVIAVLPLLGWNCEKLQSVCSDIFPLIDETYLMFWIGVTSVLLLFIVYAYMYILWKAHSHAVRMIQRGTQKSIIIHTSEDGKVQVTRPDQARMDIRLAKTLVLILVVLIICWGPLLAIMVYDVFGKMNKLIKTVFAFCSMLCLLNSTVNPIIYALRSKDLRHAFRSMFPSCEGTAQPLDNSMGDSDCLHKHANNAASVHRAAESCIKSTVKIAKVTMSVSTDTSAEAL

[3] = target: T1, CB1R D266ECL2E (Homo sapiens, UniProt P21554, D266E); assay: [35S]GTPγS assay, CB1R D266E mutant; type: biochemical; settings: CB1R D266E; 10 µM agonist
T1 construct: The WT CB1R and CB2R genes were subcloned into vector pcDNA3.1; HA signal peptide (N); expressed in transfected cells; host or cells: HEK293T (transient, membrane homogenates)
T1 sequence (P21554 whole entry D266E): as the sequence (P21554 whole entry H270L) above, with D266E, L270H counted along it

[4] = target: T2, CB2R-Quadruple^TM1,7 (Homo sapiens, UniProt P34972, C40S/K279T/K33Q/V36I); assay: [3H]CP55,940 displacement assay, CB2R quadruple mutant; type: binding; settings: CB2R Quadruple TM1,7 mutant; <5 when curve fit not finished
T2 sequence (P34972 whole entry K33Q/V36I/C40S/K279T): as the sequence (P34972 whole entry I110L) above, with K33Q, V36I, C40S, L110I, K279T counted along it

[5] = tested on: CB1R QuadrupleTM1,7; assay: [35S]GTPγS assay, CB1R quadruple mutant; type: biochemical, human; settings: CB1R Quadruple TM1,7; 10 µM agonist
[6] = target: T3, CB2R-L185^ECL2H (Homo sapiens, UniProt P34972, L185H); assay: [35S]GTPγS assay, CB2R L185H mutant; type: biochemical; settings: L185H mutant
T3 sequence (P34972 whole entry L185H): as the sequence (P34972 whole entry I110L) above, with L110I, L185H counted along it

[7] = target: CB1R-L359^6.51V (Homo sapiens, UniProt P21554, L359V); assay: [35S]GTPγS assay, CB1R L359V mutant; type: biochemical; settings: CB1R L359V; 10 µM agonist
Sequence of CB1R-L359^6.51V (P21554 whole entry L359V): as the sequence (P21554 whole entry H270L) above, with L270H, L359V counted along it

[8] = target: T4, hCB2R (Homo sapiens, UniProt P34972); assay: [3H]RO6957022 competition association assay; type: binding; settings: for percentage specific [3H]RO6957022 binding (competition association): individual replicates
T4 construct: host or cells: CHO-K1 (CHOK1_hCB2bgal, PathHunter), membranes
T4 sequence (P34972 whole entry): as the sequence (P34972 whole entry I110L) above, with L110I counted along it

[9] = target: T5, CB2R WT (Homo sapiens, UniProt P34972); assay: [3H]CP55,940 displacement assay, CB2R WT; type: binding
T5 sequence (P34972 whole entry): as the sequence (P34972 whole entry I110L) above, with L110I counted along it

[10] = target: T2, CB2R-Quadruple^TM1,7; assay: [35S]GTPγS assay, CB2R quadruple mutant; type: biochemical; settings: for [35S]GTPγS binding, percentage of WT: QuadrupleTM1,7, individual replicates
Protocol: In short, transient HEK293T membrane homogenates (10 µg/well) were diluted in assay buffer (50 mM Tris-HCl (pH 7.4), 5 mM MgCl2, 150 mM NaCl, 1 mM EDTA, 0.05% BSA (w/v) and 1 mM DTT, freshly prepared every day) and were pretreated with 10 µg saponin and 1 µM GDP. For endocannabinoid samples, the membranes were additionally pretreated for 30 min with 50 µM PMSF before agonist addition. […] Basal receptor activity was determined in the presence of vehicle only (0.2% DMSO/acetonitrile). […] Filtration was performed, and filter-bound radioactivity was determined as described under [^3H]RO6957022 Competition Association Assays except for using ice-cold 50 mM Tris-HCl (pH 7.4), 5 mM MgCl2 buffer.

[11] = target: T3, CB2R-L185^ECL2H; assay: [3H]CP55,940 displacement assay, CB2R L185H mutant; type: binding
[12] = target: hCB1R WT (Homo sapiens, UniProt P21554); assay: [35S]GTPγS G protein activation assay, CB1R WT; type: biochemical; settings: CB1R WT; 10 µM agonist
Sequence of hCB1R WT (P21554 whole entry): as the sequence (P21554 whole entry H270L) above, with L270H counted along it

[13] = target: CB1R I267ECL2L (Homo sapiens, UniProt P21554, I267L); assay: [35S]GTPγS assay, CB1R I267L mutant; type: biochemical; settings: CB1R I267L; 10 µM agonist
Sequence of CB1R I267ECL2L (P21554 whole entry I267L): as the sequence (P21554 whole entry H270L) above, with I267L, L270H counted along it

[14] = target: CB2R-L182^ECL2I (Homo sapiens, UniProt P34972, L182I); assay: [35S]GTPγS assay, CB2R L182I mutant; type: biochemical; settings: L182I mutant
Sequence of CB2R-L182^ECL2I (P34972 whole entry L182I): as the sequence (P34972 whole entry I110L) above, with L110I, L182I counted along it

[15] = target: T5, CB2R WT; assay: [35S]GTPγS G protein activation assay, CB2R WT; type: biochemical; settings: for Emax: CB2R WT, read-out: Emax (%); for [35S]GTPγS binding, percentage of WT / [35S]GTPγS binding, percentage of CP55,940: individual replicates
[16] = target: T4, hCB2R; assay: [3H]RO6957022 displacement assay; type: binding; settings: for percentage specific [3H]RO6957022 binding (displacement): individual replicates
[17] = target: CB2R-E181^ECL2D (Homo sapiens, UniProt P34972, E181D); assay: [35S]GTPγS assay, CB2R E181D mutant; type: biochemical; settings: E181D mutant
Sequence of CB2R-E181^ECL2D (P34972 whole entry E181D): as the sequence (P34972 whole entry I110L) above, with L110I, E181D counted along it

[18] = at 10 µM compared to WT, read-out: Emax (%)

CCCCC/C=C\C/C=C\C/C=C\C/C=C\CCCC(=O)OC(CO)CO [2-AG, 2-arachidonoylglycerol]
Ki [1]: 1580 nM | Agonist-mediated activation [2]: 1.5 ± 0.1 fold over its basal | Agonist-mediated activation [3]: 1.5 ± 0.2 fold over its basal | Ki [4]: > 10000 nM | Agonist-mediated activation [5]: 1.8 ± 0.1 fold over its basal | EC50 ([6]; HEK293T membranes): 1260 nM | Emax [6, 18]: 171 ± 16% | Agonist-mediated activation [7]: 1.4 ± 0.2 fold over its basal | Kd ([8]; KD = koff/kon, read-out: Kinetic KD): 42.7 nM | percentage specific [3H]RO6957022 binding (competition association) ([8]; Time 1 min): 2.75% and 8.28% and -0.30% | percentage specific [3H]RO6957022 binding (competition association) ([8]; Time 3 min): 14.15% and 22.81% and 17.03% | percentage specific [3H]RO6957022 binding (competition association) ([8]; Time 5 min): 22.93% and 20.44% and 8.60% | percentage specific [3H]RO6957022 binding (competition association) ([8]; Time 7 min): 18.57% and 22.56% and 19.64% | percentage specific [3H]RO6957022 binding (competition association) ([8]; Time 10 min): 21.07% and 23.19% and 30.43% | percentage specific [3H]RO6957022 binding (competition association) ([8]; Time 20 min): 26.97% and 35.00% and 33.48% | percentage specific [3H]RO6957022 binding (competition association) ([8]; Time 30 min): 25.36% and 45.58% and 22.89% | percentage specific [3H]RO6957022 binding (competition association) ([8]; Time 45 min): 33.64% and 44.13% and 30.07% | percentage specific [3H]RO6957022 binding (competition association) ([8]; Time 60 min): 37.87% and 46.21% and 40.22% | percentage specific [3H]RO6957022 binding (competition association) ([8]; Time 90 min): 43.62% and 64.89% and 33.23% | percentage specific [3H]RO6957022 binding (competition association) ([8]; Time 120 min): 44.54% and 60.70% and 44.33% | ET (engagement time) ([8]; at 1 µM agonist, ET = 1/(kon ∙ 1 × 10-6)): 18.8 ± 3.61 s | Ki [9]: 1580 nM | EC50 ([10]; Quadruple TM1,7 mutant, <5 when curve fit not finished): > 10000 nM | Emax ([10]; Quadruple TM1,7 mutant, at 10 µM compared to WT, read-out: Emax (%)): 6 ± 4% | [35S]GTPγS binding, percentage of WT ([10]; log [ligand] (M) -5): 11.95 percentage of WT and 6.85 percentage of WT and -0.68 percentage of WT | [35S]GTPγS binding, percentage of WT ([10]; log [ligand] (M) -6): 26.61 percentage of WT and 0.18 percentage of WT | [35S]GTPγS binding, percentage of WT ([10]; log [ligand] (M) -7): -4.94 percentage of WT and -35.40 percentage of WT and 2.05 percentage of WT | [35S]GTPγS binding, percentage of WT ([10]; log [ligand] (M) -8): -0.27 percentage of WT and -23.76 percentage of WT and 1.32 percentage of WT | Ki [11]: 398 nM | Agonist-mediated activation [12]: 1.3 ± 0.1 fold over its basal | Agonist-mediated activation [13]: 1.1 ± 0.0 fold over its basal | EC50 ([14]; <5 when curve fit not finished): > 10000 nM | Emax [14, 18]: 15 ± 9% | Emax ([15]; maximum effect at 10 µM compared to WT (Suppl. Table 6)): 85 ± 2% | Emax ([15]; maximum effect compared to CP55,940): 93 ± 22% | [35S]GTPγS binding, percentage of WT ([15]; log [ligand] (M) -5): 81.88 percentage of WT and 83.76 percentage of WT and 88.90 percentage of WT | [35S]GTPγS binding, percentage of WT ([15]; log [ligand] (M) -6): 30.38 percentage of WT and 55.12 percentage of WT and 21.88 percentage of WT | [35S]GTPγS binding, percentage of WT ([15]; log [ligand] (M) -7): 23.64 percentage of WT and 24.41 percentage of WT and 16.38 percentage of WT | [35S]GTPγS binding, percentage of WT ([15]; log [ligand] (M) -8): 45.75 percentage of WT and 38.50 percentage of WT and 15.70 percentage of WT | EC50 ([15]; [35S]GTPγS, HEK293T membranes transiently expressing CB2R WT): 1260 nM | [35S]GTPγS binding, percentage of CP55,940 ([15]; log [agonist] (M) -5): 64.32% and 135.41% and 79.23% | [35S]GTPγS binding, percentage of CP55,940 ([15]; log [agonist] (M) -6): 23.86% and 33.33% and 42.53% | [35S]GTPγS binding, percentage of CP55,940 ([15]; log [agonist] (M) -7): 18.57% and 24.95% and 4.53% | [35S]GTPγS binding, percentage of CP55,940 ([15]; log [agonist] (M) -8): 35.93% and 23.91% and 2.02% | Ki ([16]; CHOK1_hCB2bgal membranes, 10 °C): 97.3 nM | percentage specific [3H]RO6957022 binding (displacement) ([16]; log [agonist] (M) -5): -4.06% and 1.99% and 1.24% | percentage specific [3H]RO6957022 binding (displacement) ([16]; log [agonist] (M) -6): 9.18% and 29.61% and 23.88% | percentage specific [3H]RO6957022 binding (displacement) ([16]; log [agonist] (M) -7): 74.28% and 92.58% and 77.97% | percentage specific [3H]RO6957022 binding (displacement) ([16]; log [agonist] (M) -8): 95.23% and 106.70% and 113.70% | EC50 ([17]; <5 when curve fit not finished): > 10000 nM | Emax [17, 18]: 22 ± 15%
